In US11306101B2 (Celgene Corporation, priority 2019, dated 2022):

Biological target: T1, CK1α (Homo sapiens, UniProt P48729+Q96SW2)
T1 construct: expressed in transfected cells
Test: CK1α ePL degradation assay in MDS-L cells
Assay type: cell-based
Settings: MDS-L cells expressing ePL-tagged CK1α; for DC50: concentration giving 50% CK1α degradation vs DMSO control; for Y: lowest measured CK1α level normalized to DMSO control
Procedure: The following is an example of an assay that can be used to determine the CK1α degradation activity of Isoindolinone Carboxamide Compounds in a cell line, for example, the MDS-L cell line.
Compounds were dispensed by an acoustic dispenser (ATS acoustic transfer system from EDC Biosystems) into a 384-well in a 10 point dose-response curve using 3-fold dilutions starting at 10 μM and going down to 0.0005 μM in DMSO. […] Assay plates were incubated at 37° C. with 5% CO2 for the indicated times. At the different time points, 25 μL of the InCELL Hunter™ Detection Reagent Working Solution (catalog number 96-0002, DiscoverX, Fremont, Calif.) was added to each well and incubated at RT for 30 min protected from light. After 30 min, luminescence was read on a PHERAstar luminometer (BMG LABTECH, Cary, N.C.).
CK1α levels in compound-treated wells were normalized to that of DMSO control and expressed as percent of control (PoC) (y).
The lowest measured CK1α level normalized to DMSO control in response to compound treatment, termed Y value, was used to characterize the compound-mediated CK1α degradation efficiency.

T1 sequence (P48729 whole entry): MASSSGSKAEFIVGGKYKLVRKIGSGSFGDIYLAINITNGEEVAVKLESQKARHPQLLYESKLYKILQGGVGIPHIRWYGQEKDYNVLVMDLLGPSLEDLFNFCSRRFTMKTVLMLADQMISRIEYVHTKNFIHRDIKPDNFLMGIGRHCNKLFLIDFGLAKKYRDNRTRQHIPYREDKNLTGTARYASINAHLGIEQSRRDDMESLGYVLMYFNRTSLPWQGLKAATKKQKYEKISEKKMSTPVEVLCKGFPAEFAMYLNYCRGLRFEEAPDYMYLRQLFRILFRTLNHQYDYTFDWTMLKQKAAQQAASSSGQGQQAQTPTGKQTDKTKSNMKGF
T1 sequence (Q96SW2 whole entry): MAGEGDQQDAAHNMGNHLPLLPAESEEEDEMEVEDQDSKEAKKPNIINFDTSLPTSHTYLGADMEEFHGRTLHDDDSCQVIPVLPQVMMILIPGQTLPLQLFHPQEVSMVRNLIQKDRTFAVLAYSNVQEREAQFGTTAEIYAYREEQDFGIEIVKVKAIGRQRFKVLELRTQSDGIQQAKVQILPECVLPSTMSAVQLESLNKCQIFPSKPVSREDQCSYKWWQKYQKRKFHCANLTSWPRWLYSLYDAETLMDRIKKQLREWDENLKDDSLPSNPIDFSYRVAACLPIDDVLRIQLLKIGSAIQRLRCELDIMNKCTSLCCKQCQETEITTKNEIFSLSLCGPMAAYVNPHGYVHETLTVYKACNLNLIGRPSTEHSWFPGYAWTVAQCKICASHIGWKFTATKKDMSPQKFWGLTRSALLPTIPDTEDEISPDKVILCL
T1 sequence (Q16531 whole entry partner): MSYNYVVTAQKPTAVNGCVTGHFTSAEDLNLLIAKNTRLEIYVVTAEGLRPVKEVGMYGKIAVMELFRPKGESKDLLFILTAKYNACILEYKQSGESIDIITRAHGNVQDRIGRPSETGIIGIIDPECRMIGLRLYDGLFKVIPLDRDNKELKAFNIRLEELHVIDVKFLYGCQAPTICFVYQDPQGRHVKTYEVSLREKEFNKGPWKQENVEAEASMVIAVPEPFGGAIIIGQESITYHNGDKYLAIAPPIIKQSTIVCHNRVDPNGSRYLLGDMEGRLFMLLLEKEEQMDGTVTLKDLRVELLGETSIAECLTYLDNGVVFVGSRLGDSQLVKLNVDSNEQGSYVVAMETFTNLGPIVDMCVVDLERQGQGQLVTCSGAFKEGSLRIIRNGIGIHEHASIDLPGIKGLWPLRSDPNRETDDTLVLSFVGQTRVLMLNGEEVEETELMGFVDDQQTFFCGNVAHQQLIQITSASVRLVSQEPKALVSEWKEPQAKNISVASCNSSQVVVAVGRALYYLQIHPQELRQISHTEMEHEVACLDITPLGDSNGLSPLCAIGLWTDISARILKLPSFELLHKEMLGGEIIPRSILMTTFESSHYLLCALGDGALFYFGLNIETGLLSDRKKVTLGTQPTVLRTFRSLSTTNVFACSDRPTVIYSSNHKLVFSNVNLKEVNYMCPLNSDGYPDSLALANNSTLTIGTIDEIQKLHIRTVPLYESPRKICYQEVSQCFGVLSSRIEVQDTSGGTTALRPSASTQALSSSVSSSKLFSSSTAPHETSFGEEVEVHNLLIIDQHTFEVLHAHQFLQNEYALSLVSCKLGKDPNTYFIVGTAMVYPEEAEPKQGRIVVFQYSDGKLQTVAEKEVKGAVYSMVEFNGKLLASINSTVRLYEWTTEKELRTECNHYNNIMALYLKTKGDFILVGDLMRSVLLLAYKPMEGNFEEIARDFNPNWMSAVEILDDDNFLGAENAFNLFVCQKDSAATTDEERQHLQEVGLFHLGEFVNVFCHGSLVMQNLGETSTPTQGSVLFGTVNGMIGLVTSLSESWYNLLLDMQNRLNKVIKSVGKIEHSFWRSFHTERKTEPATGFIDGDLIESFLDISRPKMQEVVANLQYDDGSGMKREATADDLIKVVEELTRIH

SMILES | DC50 | Y
O=C1CCC(N2Cc3cc(C(=O)N[C@@H](C(F)(F)F)C4(C(F)(F)F)CC4)ccc3C2=O)C(=O)N1 (stereo partly drawn) [Example 75, 2-(2,6-dioxopiperidin-3-yl)-1-oxo-N-((R)-2,2,2-trifluoro-1-(1-(trifluoromethyl)cyclopropyl)ethyl)isoindoline-5-carboxamide] | 0.1 to 0.5 µM | ** (a Y value (shown as**) of 20%<Y≤35%)
CN1CCC([C@@H](NC(=O)c2ccc3c(c2)CN(C2CCC(=O)NC2=O)C3=O)C(F)(F)F)CC1 (stereo partly drawn) [Example 81, 2-(2,6-dioxopiperidin-3-yl)-1-oxo-N-((R)-2,2,2-trifluoro-1-(1-methylpiperidin-4-yl)ethyl)isoindoline-5-carboxamide] | 0.5 to 1 µM | ** (a Y value (shown as**) of 20%<Y≤35%)
O=C1CCC(N2Cc3cc(C(=O)N[C@H](c4cnccn4)C(F)(F)F)ccc3C2=O)C(=O)N1 (stereo partly drawn) [Example 82, 2-(2,6-dioxopiperidin-3-yl)-1-oxo-N-((R)-2,2,2-trifluoro-1-(pyrazin-2-yl)ethyl)isoindoline-5-carboxamide] | 0.1 to 0.5 µM | ** (a Y value (shown as**) of 20%<Y≤35%)
O=C1CCC(N2Cc3cc(C(=O)N[C@H](c4ccccc4)C(F)(F)F)c(F)cc3C2=O)C(=O)N1 (stereo partly drawn) [Example 84, 2-(2,6-dioxopiperidin-3-yl)-6-fluoro-1-oxo-N-((R)-2,2,2-trifluoro-1-phenylethyl)isoindoline-5-carboxamide] | 0.1 to 0.5 µM | ** (a Y value (shown as**) of 20%<Y≤35%)
C[C@H](NC(=O)c1cc2c(cc1F)C(=O)N(C1CCC(=O)NC1=O)C2)c1ccccc1 (stereo partly drawn) [Example 85, 2-(2,6-dioxopiperidin-3-yl)-6-fluoro-1-oxo-N-((S)-1-phenylethyl)isoindoline-5-carboxamide] | 0.5 to 1 µM | *** (a Y value (shown as***) of 35%<Y<50%)
CC(C)(C#N)[C@@H](NC(=O)c1ccc2c(c1)CN(C1CCC(=O)NC1=O)C2=O)C(F)(F)F (stereo partly drawn) [Example 87, N-((R)-3-cyano-1,1,1-trifluoro-3-methylbutan-2-yl)-2-(2,6-dioxopiperidin-3-yl)-1-oxoisoindoline-5-carboxamide] | 0.1 to 0.5 µM | ** (a Y value (shown as**) of 20%<Y≤35%)
O=C1CCC(N2Cc3cc(C(=O)N[C@H](c4ccccc4C(F)(F)F)C(F)(F)F)c(F)cc3C2=O)C(=O)N1 (stereo partly drawn) [Example 88, 2-(2,6-dioxopiperidin-3-yl)-6-fluoro-1-oxo-N-((R)-2,2,2-trifluoro-1-(2-(trifluoromethyl)phenyl)ethyl)isoindoline-5-carboxamide] | < 0.1 µM | * (a Y value (shown as *) of 0<Y≤20%)
O=C1CCC(N2Cc3c(ccc(C(=O)N[C@H](c4ccccc4)C(F)(F)F)c3F)C2=O)C(=O)N1 (stereo partly drawn) [Example 89, 2-(2,6-dioxopiperidin-3-yl)-4-fluoro-1-oxo-N-((R)-2,2,2-trifluoro-1-phenylethyl)isoindoline-5-carboxamide] | < 0.1 µM | ** (a Y value (shown as**) of 20%<Y≤35%)
O=C1CCC(N2Cc3cc(C(=O)N[C@H](c4cccc(C(F)(F)F)c4)C(F)(F)F)c(F)cc3C2=O)C(=O)N1 (stereo partly drawn) [Example 90, 2-(2,6-dioxopiperidin-3-yl)-6-fluoro-1-oxo-N-((R)-2,2,2-trifluoro-1-(3-(trifluoromethyl)phenyl)ethyl)isoindoline-5-carboxamide] | 0.1 to 0.5 µM | ** (a Y value (shown as**) of 20%<Y≤35%)
O=C1CCC(N2Cc3cc(C(=O)N[C@H](c4ccc(Cl)cc4)C(F)(F)F)c(F)cc3C2=O)C(=O)N1 (stereo partly drawn) [Example 91, N-((R)-1-(4-chlorophenyl)-2,2,2-trifluoroethyl)-2-(2,6-dioxopiperidin-3-yl)-6-fluoro-1-oxoisoindoline-5-carboxamide] | < 0.1 µM | ** (a Y value (shown as**) of 20%<Y≤35%)
O=C1CCC(N2Cc3cc(C(=O)N[C@H](c4ccc(F)cc4)C(F)(F)F)c(F)cc3C2=O)C(=O)N1 (stereo partly drawn) [Example 92, 2-(2,6-dioxopiperidin-3-yl)-6-fluoro-1-oxo-N-((R)-2,2,2-trifluoro-1-(4-fluorophenyl)ethyl)isoindoline-5-carboxamide] | 0.1 to 0.5 µM | ** (a Y value (shown as**) of 20%<Y≤35%)
O=C1CCC(N2Cc3c(ccc(C(=O)N[C@H](c4ccc(Cl)cc4)C(F)(F)F)c3F)C2=O)C(=O)N1 (stereo partly drawn) [Example 93, N-((R)-1-(4-chlorophenyl)-2,2,2-trifluoroethyl)-2-(2,6-dioxopiperidin-3-yl)-4-fluoro-1-oxoisoindoline-5-carboxamide] | < 0.1 µM | * (a Y value (shown as *) of 0<Y≤20%)
CC1([C@@H](NC(=O)c2ccc3c(c2)CN(C2CCC(=O)NC2=O)C3=O)C(F)(F)F)COC1 (stereo partly drawn) [Example 94, 2-(2,6-dioxopiperidin-3-yl)-1-oxo-N-((R)-2,2,2-trifluoro-1-(3-methyloxetan-3-yl)ethyl)isoindoline-5-carboxamide] | 0.1 to 0.5 µM | ** (a Y value (shown as**) of 20%<Y≤35%)
CC(C)(CO)[C@@H](NC(=O)c1ccc2c(c1)CN(C1CCC(=O)NC1=O)C2=O)C(F)(F)F (stereo partly drawn) [Example 95, 2-(2,6-dioxopiperidin-3-yl)-1-oxo-N-((R)-1,1,1-trifluoro-4-hydroxy-3,3-dimethylbutan-2-yl)isoindoline-5-carboxamide] | 0.5 to 1 µM | ** (a Y value (shown as**) of 20%<Y≤35%)
O=C1CCC(N2Cc3c(ccc(C(=O)N[C@H](c4ccc(F)cc4)C(F)(F)F)c3F)C2=O)C(=O)N1 (stereo partly drawn) [Example 96, 2-(2,6-dioxopiperidin-3-yl)-4-fluoro-1-oxo-N-((R)-2,2,2-trifluoro-1-(4-fluorophenyl)ethyl)isoindoline-5-carboxamide] | < 0.1 µM | * (a Y value (shown as *) of 0<Y≤20%)
O=C1CCC(N2Cc3c(ccc(C(=O)N[C@H](c4cccc(C(F)(F)F)c4)C(F)(F)F)c3F)C2=O)C(=O)N1 (stereo partly drawn) [Example 97, 2-(2,6-dioxopiperidin-3-yl)-4-fluoro-1-oxo-N-((R)-2,2,2-trifluoro-1-(3-(trifluoromethyl)phenyl)ethyl)isoindoline-5-carboxamide] | 0.1 to 0.5 µM | ** (a Y value (shown as**) of 20%<Y≤35%)

The next lines start with the values.

DC50 | Y | SMILES
< 0.1 µM | * (a Y value (shown as *) of 0<Y≤20%) | CC1([C@@H](NC(=O)c2ccc3c(c2)CN(C2CCC(=O)NC2=O)C3=O)C(F)(F)F)CCC1 (stereo partly drawn) [Example 74, 2-(2,6-dioxopiperidin-3-yl)-1-oxo-N-((R)-2,2,2-trifluoro-1-(1-methylcyclobutyl)ethyl)isoindoline-5-carboxamide]
< 0.1 µM | ** (a Y value (shown as**) of 20%<Y≤35%) | O=C1CCC(N2Cc3cc(C(=O)N[C@H](c4ccc(F)cn4)C(F)(F)F)ccc3C2=O)C(=O)N1 (stereo partly drawn) [Example 76, 2-(2,6-dioxopiperidin-3-yl)-1-oxo-N-((R)-2,2,2-trifluoro-1-(5-fluoropyridin-2-yl)ethyl)isoindoline-5-carboxamide]
< 0.1 µM | * (a Y value (shown as *) of 0<Y≤20%) | O=C1CCC(N2Cc3cc(C(=O)N[C@H](c4ccc(F)cc4C(F)(F)F)C(F)(F)F)ccc3C2=O)C(=O)N1 (stereo partly drawn) [Example 77, 2-(2,6-dioxopiperidin-3-yl)-1-oxo-N-((R)-2,2,2-trifluoro-1-(4-fluoro-2-(trifluoromethyl)phenyl)ethyl)isoindoline-5-carboxamide]
< 0.1 µM | * (a Y value (shown as *) of 0<Y≤20%) | CC1([C@@H](NC(=O)c2ccc3c(c2)CN(C2CCC(=O)NC2=O)C3=O)C(F)(F)F)CC1 (stereo partly drawn) [Example 78, 2-(2,6-dioxopiperidin-3-yl)-1-oxo-N-((R)-2,2,2-trifluoro-1-(1-methylcyclopropyl)ethyl)isoindoline-5-carboxamide]
< 0.1 µM | * (a Y value (shown as *) of 0<Y≤20%) | O=C1CCC(N2Cc3cc(C(=O)N[C@H](c4ccc(Cl)cc4F)C(F)(F)F)ccc3C2=O)C(=O)N1 (stereo partly drawn) [Example 79, N-((R)-1-(4-chloro-2-fluorophenyl)-2,2,2-trifluoroethyl)-2-(2,6-dioxopiperidin-3-yl)-1-oxoisoindoline-5-carboxamide]
< 0.1 µM | * (a Y value (shown as *) of 0<Y≤20%) | O=C1CCC(N2Cc3cc(C(=O)N[C@H](c4ccc(F)cc4F)C(F)(F)F)ccc3C2=O)C(=O)N1 (stereo partly drawn) [Example 80, N-((R)-1-(2,4-difluorophenyl)-2,2,2-trifluoroethyl)-2-(2,6-dioxopiperidin-3-yl)-1-oxoisoindoline-5-carboxamide]
< 0.1 µM | * (a Y value (shown as *) of 0<Y≤20%) | CC1([C@@H](NC(=O)c2ccc3c(c2)CN(C2CCC(=O)NC2=O)C3=O)C(F)(F)F)CCCC1 (stereo partly drawn) [Example 83, 2-(2,6-dioxopiperidin-3-yl)-1-oxo-N-((R)-2,2,2-trifluoro-1-(1-methylcyclopentyl)ethyl)isoindoline-5-carboxamide]
< 0.1 µM | * (a Y value (shown as *) of 0<Y≤20%) | O=C1CCC(N2Cc3cc(C(=O)N[C@H](c4ccc(F)cc4OC(F)(F)F)C(F)(F)F)ccc3C2=O)C(=O)N1 (stereo partly drawn) [Example 86, 2-(2,6-dioxopiperidin-3-yl)-1-oxo-N-((R)-2,2,2-trifluoro-1-(4-fluoro-2-(trifluoromethoxy)phenyl)ethyl)isoindoline-5-carboxamide]
